From paper PMC12700559, “Structural basis for simvastatin-induced skeletal muscle weakness associated with type 1 ryanodine receptor T4709M mutation” (The Journal of Clinical Investigation, 2025)

Legend:
[1] = molecular target: T1, type 1 ryanodine receptor (RyR1) (Mus musculus, UniProt E9PZQ0); test: [3H]simvastatin radioligand binding; single-channel recordings show activation
T1 construct: recombinant WT RyR1 on HEK293 ER microsomes (also endogenous RyR1 from mouse skeletal muscle)

[2] = molecular target: T2, RyR1 BSM1 mutant (Mus musculus, UniProt E9PZQ0, W4792A); test: [3H]simvastatin radioligand binding
T2 construct: recombinant RyR1 on HEK293 ER microsomes
T2 sequence (E9PZQ0 whole entry W4792A): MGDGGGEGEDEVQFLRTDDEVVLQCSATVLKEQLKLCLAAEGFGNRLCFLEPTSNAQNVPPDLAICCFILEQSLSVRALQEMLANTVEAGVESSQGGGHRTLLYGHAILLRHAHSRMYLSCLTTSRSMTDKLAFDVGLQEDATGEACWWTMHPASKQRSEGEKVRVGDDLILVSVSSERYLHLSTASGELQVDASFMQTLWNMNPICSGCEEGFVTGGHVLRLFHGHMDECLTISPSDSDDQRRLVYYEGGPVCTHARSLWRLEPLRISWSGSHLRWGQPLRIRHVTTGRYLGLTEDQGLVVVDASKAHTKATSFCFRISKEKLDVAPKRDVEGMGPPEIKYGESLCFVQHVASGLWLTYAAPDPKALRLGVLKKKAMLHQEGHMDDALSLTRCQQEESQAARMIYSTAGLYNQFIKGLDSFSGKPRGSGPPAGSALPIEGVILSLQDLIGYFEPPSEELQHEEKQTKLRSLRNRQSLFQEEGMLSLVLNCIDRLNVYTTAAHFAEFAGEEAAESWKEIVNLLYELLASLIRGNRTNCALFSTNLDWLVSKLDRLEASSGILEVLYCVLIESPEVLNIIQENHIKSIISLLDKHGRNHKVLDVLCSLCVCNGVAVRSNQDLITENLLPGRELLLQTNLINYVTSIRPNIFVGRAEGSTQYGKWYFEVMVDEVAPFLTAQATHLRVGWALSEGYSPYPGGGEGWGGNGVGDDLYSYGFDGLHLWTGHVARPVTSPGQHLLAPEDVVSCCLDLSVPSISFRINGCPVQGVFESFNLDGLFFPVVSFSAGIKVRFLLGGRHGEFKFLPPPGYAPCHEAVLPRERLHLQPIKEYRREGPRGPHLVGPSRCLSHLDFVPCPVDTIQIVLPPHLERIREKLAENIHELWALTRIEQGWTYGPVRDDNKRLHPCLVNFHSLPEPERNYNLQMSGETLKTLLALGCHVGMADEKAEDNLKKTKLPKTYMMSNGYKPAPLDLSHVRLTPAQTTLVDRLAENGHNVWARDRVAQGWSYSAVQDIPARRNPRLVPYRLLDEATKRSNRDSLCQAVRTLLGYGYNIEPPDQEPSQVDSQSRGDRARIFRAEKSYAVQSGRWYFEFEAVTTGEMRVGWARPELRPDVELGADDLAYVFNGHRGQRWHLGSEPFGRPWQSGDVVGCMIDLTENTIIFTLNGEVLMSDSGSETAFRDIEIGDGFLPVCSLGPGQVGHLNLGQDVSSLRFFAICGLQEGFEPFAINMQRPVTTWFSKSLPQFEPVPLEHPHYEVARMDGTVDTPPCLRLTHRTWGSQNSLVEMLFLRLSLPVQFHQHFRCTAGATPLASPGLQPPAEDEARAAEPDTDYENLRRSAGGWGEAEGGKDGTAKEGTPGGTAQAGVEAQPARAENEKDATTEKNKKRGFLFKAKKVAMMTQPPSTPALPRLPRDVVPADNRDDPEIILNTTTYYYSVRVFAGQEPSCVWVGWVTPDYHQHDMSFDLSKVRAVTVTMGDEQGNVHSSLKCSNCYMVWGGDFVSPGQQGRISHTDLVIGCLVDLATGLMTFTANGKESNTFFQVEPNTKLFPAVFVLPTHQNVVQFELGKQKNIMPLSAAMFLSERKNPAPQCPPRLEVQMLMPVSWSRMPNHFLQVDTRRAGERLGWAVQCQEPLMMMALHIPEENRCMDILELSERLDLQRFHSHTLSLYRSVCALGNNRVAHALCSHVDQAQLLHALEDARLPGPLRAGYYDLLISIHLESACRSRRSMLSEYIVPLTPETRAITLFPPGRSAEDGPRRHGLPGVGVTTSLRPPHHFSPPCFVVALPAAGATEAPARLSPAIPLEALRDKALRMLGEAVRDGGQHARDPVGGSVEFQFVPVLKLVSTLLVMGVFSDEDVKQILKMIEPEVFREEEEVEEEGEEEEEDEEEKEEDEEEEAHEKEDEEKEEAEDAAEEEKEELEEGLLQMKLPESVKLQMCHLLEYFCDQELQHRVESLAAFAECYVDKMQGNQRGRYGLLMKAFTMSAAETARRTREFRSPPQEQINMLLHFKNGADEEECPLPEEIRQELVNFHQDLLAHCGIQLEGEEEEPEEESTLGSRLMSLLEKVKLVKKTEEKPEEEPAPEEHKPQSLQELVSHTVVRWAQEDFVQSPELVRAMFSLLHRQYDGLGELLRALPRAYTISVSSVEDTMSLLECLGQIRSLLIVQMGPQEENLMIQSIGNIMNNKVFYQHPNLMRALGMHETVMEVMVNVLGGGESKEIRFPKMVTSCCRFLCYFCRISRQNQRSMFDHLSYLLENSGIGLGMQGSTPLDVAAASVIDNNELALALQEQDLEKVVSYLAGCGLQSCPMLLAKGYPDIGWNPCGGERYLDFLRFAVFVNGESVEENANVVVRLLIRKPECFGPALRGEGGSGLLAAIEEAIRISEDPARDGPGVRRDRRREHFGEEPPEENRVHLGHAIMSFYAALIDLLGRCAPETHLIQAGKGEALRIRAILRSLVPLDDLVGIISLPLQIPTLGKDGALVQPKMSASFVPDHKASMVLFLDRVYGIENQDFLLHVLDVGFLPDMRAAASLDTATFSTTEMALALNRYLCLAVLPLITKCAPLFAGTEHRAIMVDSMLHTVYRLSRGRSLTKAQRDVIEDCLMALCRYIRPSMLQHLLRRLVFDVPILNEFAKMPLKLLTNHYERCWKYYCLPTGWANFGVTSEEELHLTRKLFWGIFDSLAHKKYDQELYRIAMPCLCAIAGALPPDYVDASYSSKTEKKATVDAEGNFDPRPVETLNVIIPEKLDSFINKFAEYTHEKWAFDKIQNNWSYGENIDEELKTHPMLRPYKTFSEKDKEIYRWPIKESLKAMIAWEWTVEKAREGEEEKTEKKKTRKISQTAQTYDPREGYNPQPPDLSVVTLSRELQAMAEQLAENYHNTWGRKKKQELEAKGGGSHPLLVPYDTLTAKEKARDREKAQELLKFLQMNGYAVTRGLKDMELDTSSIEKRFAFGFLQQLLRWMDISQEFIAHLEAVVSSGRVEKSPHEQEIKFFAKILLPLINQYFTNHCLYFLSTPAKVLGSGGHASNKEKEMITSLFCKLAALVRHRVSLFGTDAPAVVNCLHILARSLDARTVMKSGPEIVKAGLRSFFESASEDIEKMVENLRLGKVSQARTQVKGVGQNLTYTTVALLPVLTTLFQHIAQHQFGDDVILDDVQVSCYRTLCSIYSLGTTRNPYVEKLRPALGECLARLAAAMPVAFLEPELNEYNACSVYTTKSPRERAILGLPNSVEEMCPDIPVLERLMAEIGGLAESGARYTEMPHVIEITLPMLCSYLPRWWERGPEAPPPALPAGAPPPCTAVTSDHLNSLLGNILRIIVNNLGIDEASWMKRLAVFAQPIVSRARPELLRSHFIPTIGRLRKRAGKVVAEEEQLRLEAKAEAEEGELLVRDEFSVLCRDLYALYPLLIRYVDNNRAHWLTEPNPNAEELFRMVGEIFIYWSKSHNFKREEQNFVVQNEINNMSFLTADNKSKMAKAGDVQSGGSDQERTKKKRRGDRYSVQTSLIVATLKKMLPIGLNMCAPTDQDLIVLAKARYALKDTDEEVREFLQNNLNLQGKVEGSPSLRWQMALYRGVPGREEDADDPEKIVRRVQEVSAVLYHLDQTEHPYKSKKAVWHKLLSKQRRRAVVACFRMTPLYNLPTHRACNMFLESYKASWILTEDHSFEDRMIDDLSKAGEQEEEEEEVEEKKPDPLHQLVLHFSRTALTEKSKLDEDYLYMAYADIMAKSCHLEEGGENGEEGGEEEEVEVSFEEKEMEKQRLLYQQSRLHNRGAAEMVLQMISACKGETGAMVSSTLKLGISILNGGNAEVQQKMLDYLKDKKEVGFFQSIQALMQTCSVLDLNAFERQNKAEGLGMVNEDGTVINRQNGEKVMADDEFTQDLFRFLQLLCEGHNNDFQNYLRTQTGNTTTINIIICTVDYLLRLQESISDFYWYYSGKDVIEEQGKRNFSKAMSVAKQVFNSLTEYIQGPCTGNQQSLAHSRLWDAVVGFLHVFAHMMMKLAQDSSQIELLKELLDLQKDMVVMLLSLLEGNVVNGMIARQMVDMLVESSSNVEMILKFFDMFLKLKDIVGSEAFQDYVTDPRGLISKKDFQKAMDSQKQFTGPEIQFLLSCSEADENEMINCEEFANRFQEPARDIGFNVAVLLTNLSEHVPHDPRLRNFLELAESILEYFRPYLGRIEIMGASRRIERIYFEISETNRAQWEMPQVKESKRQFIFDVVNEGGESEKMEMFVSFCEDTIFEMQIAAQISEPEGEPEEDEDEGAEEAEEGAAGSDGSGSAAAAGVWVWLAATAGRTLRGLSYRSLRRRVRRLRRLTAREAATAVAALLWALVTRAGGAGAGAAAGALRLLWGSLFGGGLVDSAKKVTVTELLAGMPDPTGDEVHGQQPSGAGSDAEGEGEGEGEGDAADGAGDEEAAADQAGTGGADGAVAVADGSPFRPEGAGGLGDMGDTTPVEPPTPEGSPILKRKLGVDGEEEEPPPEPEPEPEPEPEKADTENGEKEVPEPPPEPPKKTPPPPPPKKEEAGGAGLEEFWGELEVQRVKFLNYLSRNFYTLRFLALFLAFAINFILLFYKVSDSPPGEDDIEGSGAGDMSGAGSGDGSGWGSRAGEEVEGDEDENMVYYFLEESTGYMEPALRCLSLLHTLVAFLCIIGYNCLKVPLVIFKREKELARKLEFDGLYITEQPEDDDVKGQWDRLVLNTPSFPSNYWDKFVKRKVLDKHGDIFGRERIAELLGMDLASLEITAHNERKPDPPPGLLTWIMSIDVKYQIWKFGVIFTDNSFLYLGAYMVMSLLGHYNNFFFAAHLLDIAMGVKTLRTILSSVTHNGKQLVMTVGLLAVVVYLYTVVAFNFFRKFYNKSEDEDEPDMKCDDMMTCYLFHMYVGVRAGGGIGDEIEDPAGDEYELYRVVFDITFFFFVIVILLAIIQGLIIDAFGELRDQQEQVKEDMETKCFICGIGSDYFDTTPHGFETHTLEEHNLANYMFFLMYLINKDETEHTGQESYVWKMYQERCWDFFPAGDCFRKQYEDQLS

T1 sequence (E9PZQ0 whole entry): as the sequence (E9PZQ0 whole entry W4792A) above, with A4792W counted along it

Kd [1]: 0.69 µM
Kd [2]: ~7.1 µM
Structure (SMILES): CCC(C)(C)C(=O)O[C@H]1C[C@@H](C)C=C2C=C[C@H](C)[C@H](CC[C@@H](O)C[C@@H](O)CC(=O)O)[C@H]21 [simvastatin acid]
